The results in this text go back to US8084623B2, “Pyrrolidinyl and piperidinyl ketone derivatives and uses thereof” (Roche Palo Alto LLC, priority 2006, dated 2011).

Molecules are shown by their SMILES.

As usually defined, the melting point is the temperature, or range, at which the solid turns liquid. Turning to `CCCC1(C(=O)c2cc(F)c(N)c(Cl)c2)CCNC1` (centres unmarked), the melting point lay within 65 to 67 °C. As for `O=C(c1ccc2[nH]ncc2c1)C1(CC2CC2)CCCN1` (centres unmarked), the melting point is 291 to 292 °C. In turn, `COCC1(C(=O)c2ccc3[nH]ccc3c2)CCNC1` (centres unmarked) displayed a melting point of 59.1 to 61 °C. Consider `CCCC1(C(=O)c2ccc(O)c(Cl)c2)CCCNC1` (centres unmarked), for which the melting point was 265.6 to 266.9 °C. As to `O=C(c1ccc2[nH]ncc2c1)C1(CC2CCCC2)CCCN1` (centres unmarked), the melting point is > 300 °C. The molecule `CCCC1(C(=O)c2ccc(Cl)c(Cl)c2)CNC1` came in with a melting point of 59 to 60 °C. In turn, `CC(C)CC1(C(=O)c2cc(F)c(Cl)c(Cl)c2)CCNCC1` had a melting point of 166 to 167 °C.

As for `CCCC1(C(=O)c2ccc(Cl)c(Cl)c2)CCN1` (centres unmarked), the melting point was 252.6 to 254 °C.
